# Values quoted from earlier work, collected in patent US20040248846A1, “Intranasal administration of triptans” (Nastech Pharmaceutical Company Inc., priority 2003, published 2004).
# Read-outs that look alike come from different tables or passages of the source.
# Experiments:
# [1] = system: patients with migraine
# [2] = single 6 mg subcutaneous dose, 18 healthy males
structure (smiles),measurement,setting,value
CNS(=O)(=O)Cc1ccc2[nH]cc(CCN(C)C)c2c1 [sumatriptan],mean Cmax,"5 mg intranasal dose, 20 females",5 ng/mL
same,mean Cmax,"20 mg intranasal dose, 20 females",16 ng/mL
same,mean Cmax,oral dosing with 25 mg,approximately 18 ng/ml
same,tmax,oral dosing with 25 mg,approximately 2 hours
same,mean Cmax,[2],74 ± 15 ng/mL
same,median tmax,[2],12 min
same,efficacy (effective),[1]; 6 mg subcutaneous dose,~85%
same,Onset of pain relief,[1]; after a nasal dose,30 min
same,Onset of pain relief,[1]; after a subcutaneous dose,10 to 34 min
